Assay results reported in US8158828B2, “Nuclear receptor binding agents” (priority 2005, dated 2012).
Entries after “also recorded” stand apart in the source; their conditions may differ.

Columns and labels:
PC-3 cells = assay: Androgen independent prostate cancer cell growth; assay type: cell-based; settings: for PC-3 cell growth inhibition: 72 hrs; for PC-3 growth inhibition, qualitative grading: in vitro, data not shown
Method: PC-3 cells were plated in RPMI+10% csFBS at 6000 cells per well of a 96 well plate. Medium was changed to RPMI+1% csFBS without phenol red and then treated for 72 hrs with increasing concentrations of SERMs.
The prostate cancer cell line PC-3 was plated in RPMI+10% csFBS at 6000 cells per well of a 96 well plate. Medium was changed to RPMI+1% csFBS without phenol red and cells were treated for 72 hrs with increasing concentrations of SERMs.
PC-3 growth inhibition was determined qualitatively, in vitro, and represented as a grading system based on the ability of the SERMs to inhibit growth. The number −4 is for compounds that induced 100% growth inhibition at 1 uM, −3 for compounds that inhibit growth by about 75-90%, −2 for about 50-70% and −1 for inhibition less than 50% growth.

uterus = assay: In vivo estrogenic activity, uterine weight; design: species or system rat; settings: female rats; for estrogenic activity in terms of uterine weight: compound alone
Method: Rats that were administered the vehicle alone served as controls.

ER-β = target: T1, ER-β (Rattus norvegicus, UniProt Q62986); assay: ER-β transactivation, ERE-LUC in COS or 293 cells; assay type: cell-based; design: % estardiol activity, ER-β: dose or concentration left out as unconfirmed; settings: for ER-β LUC expression, compound alone / inhibition of E2-stimulated LUC expression, ER-β: COS or 293 cells; for inhibition of E2-stimulated LUC expression, ER-β: with E2
T1 construct: expressed in transfected cells; host or cells: COS or 293 cells
T1 sequence (Q62986 whole entry): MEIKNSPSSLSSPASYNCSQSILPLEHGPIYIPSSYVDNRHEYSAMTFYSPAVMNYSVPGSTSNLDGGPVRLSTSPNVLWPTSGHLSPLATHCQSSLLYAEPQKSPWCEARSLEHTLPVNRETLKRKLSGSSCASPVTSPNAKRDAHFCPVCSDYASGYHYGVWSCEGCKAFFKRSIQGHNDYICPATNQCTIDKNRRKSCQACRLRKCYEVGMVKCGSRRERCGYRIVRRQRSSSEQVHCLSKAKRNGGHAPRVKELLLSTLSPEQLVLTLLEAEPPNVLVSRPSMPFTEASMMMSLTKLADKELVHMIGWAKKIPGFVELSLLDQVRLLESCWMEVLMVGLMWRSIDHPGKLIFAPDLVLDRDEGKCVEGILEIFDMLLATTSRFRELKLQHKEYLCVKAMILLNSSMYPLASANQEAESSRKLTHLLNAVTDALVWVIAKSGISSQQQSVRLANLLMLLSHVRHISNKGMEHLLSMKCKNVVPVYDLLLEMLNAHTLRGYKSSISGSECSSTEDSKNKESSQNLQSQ

ER-α = target: T2, ER-α (Rattus norvegicus, UniProt P06211); assay: ER-α transactivation, ERE-LUC in COS or 293 cells; assay type: cell-based; design: % estardiol activity, ER-α: dose or concentration left out as unconfirmed; settings: for inhibition of estradiol (E2) induced ER-α activity (luciferase expression): with estrogen
T2 sequence (P06211 1-600): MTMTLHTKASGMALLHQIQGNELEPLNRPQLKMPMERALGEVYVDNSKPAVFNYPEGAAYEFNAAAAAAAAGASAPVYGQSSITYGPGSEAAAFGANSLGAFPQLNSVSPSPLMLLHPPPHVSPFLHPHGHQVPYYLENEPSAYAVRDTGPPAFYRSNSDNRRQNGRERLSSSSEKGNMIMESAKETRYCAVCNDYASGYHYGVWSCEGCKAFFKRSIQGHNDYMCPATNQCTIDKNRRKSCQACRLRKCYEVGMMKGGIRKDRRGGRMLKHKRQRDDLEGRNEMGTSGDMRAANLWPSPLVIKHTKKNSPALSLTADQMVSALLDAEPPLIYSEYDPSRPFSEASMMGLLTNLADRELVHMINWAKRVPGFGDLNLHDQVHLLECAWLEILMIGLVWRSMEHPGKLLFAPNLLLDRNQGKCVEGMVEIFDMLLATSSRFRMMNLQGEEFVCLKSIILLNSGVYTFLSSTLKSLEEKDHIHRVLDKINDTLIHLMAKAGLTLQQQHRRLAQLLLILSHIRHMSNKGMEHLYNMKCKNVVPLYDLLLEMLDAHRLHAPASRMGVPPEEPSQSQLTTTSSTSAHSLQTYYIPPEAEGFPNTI

| Compound | PC-3 cell growth inhibition (PC-3 cells; concentration not given) | PC-3 growth inhibition, qualitative grading (PC-3 cells) | estrogenic activity in terms of uterine weight (uterus) | uterine weight increase, with ICI-182,780 (uterus; with ICI-182,780) | uterine weight, coadministered with estrogen (uterus; with estrogen) | ER-β LUC expression, compound alone (ER-β) | inhibition of E2-stimulated LUC expression, ER-β (ER-β) | % estardiol activity, ER-α (ER-α) | ER-α activity (luciferase expression), compound alone (ER-α; COS or 293 cells) | inhibition of estradiol (E2) induced ER-α activity (luciferase expression) (ER-α; COS or 293 cells) | IC50 (ER-α; ER alpha antagonists) | PC-3 cell growth inhibition (PC-3 cells; 1 μM) | % estardiol activity, ER-β (ER-β) |
| --- | --- | --- | --- | --- | --- | --- | --- | --- | --- | --- | --- | --- | --- |
| O=C(c1ccccc1)N(c1ccc(O)cc1)c1ccc(OCCN2CCCCC2)cc1 [Compound 4a, N-(4-hydroxyphenyl)-N-[4-(2-piperidin-1-ylethoxy)-phenyl]-benzamide] | about 50% | −1 (−1 for inhibition less than 50% growth) | exhibited estrogenic activity, in terms of increased uterine weight; also recorded: exhibited estrogenic activity, in vivo | ICI-182,780 reversed 4a and 4g effects on uterine weight increase | an increase in uterine weight was observed | neither 4a nor 4h stimulated LUC expression | inhibited E2-stimulated LUC expression | 29.9% | no effect on ER-α activity; also recorded: neither SERM alone showed any such effect | inhibited the estradiol (E2) induced ER-α activity to basal levels; also recorded: inhibited estrogen stimulated luciferase expression | 35 nM | – | – |
| Cl.O=C(c1ccc(F)cc1)N(c1ccc(O)cc1)c1ccc(OCCN2CCCCC2)cc1 [Compound 4h, N-(4-hydroxyphenyl)-N-[4-(2-piperidin-1-ylethoxy)-phenyl]-4-fluroro-benzamide hydrochloride] | – | −2 (−2 for about 50-70%) | exhibited no estrogenic, or anti-estrogenic activity in uterus | – | – | neither 4a nor 4h stimulated LUC expression | inhibited E2-stimulated LUC expression | 17.4% | – | inhibited estrogen stimulated luciferase expression | – | 75% | 29.1% |
